The data set deals with patients with confirmed endometriosis. Nature of the data set: Weekly 3 mg Cetrorelix for 8 weeks in patients with confirmed endometriosis. The conditions noted are these: 3 mg weekly for 8 weeks. The class given is in vivo, human.

Each structure is given as a SMILES string. Non-standard residues stand in square brackets, D forms with d. Residues, ends and D or L forms follow the SMILES beside them. dPhe(4-Cl) = N[C@H](Cc1ccc(Cl)cc1)C(=O)O; d2Nal = N[C@H](Cc1ccc2ccccc2c1)C(=O)O; dCit = NC(=O)NCCC[C@@H](N)C(=O)O; d3Pal = N[C@H](Cc1cccnc1)C(=O)O

On to `CC(=O)N[C@H](Cc1ccc2ccccc2c1)C(=O)N[C@H](Cc1ccc(Cl)cc1)C(=O)N[C@H](Cc1cccnc1)C(=O)N[C@@H](CO)C(=O)N[C@@H](Cc1ccc(O)cc1)C(=O)N[C@H](CCCNC(N)=O)C(=O)N[C@@H](CC(C)C)C(=O)N[C@@H](CCCNC(=N)N)C(=O)N1CCC[C@H]1C(=O)N[C@H](C)C(N)=O` [Cetrorelix acetate] (Ac-[d2Nal][dPhe(4-Cl)][d3Pal]SY[dCit]LRP[dA]-NH2), for which the “hot flushes or other hormonal (estradiol) withdrawal symptoms” value is “avoiding any hot flushes or other withdrawal symptoms” and the “proliferation of the endometrium at the end of treatment (histological biopsies)” value is “no proliferation of the endometrium”. Where the note is “listed as Cetrorelix”, the “hot flushes or other hormonal (estradiol) withdrawal symptoms” value is reported as “without any signs of estradiol withdrawal symptoms” and the “proliferation of the endometrium at the end of treatment (histological biopsies)” value is on record as “without proliferation of the endometrium”.

For the origin of these results see patent publication US20080255053A1, “METHOD FOR THE THERAPEUTIC MANAGEMENT OF ENDOMETRIOSIS” (Aeterna Zentaris GmbH, priority 1999, published 2008).
